# Measurements taken from patent publication US10077243B2, “Compounds for treating disorders mediated by metabotropic glutamate receptor 5, and methods of use thereof” (Sunovion Pharmaceuticals Inc., priority 2009, dated 2018).
# Target: T1, human mGluR5 (Homo sapiens, UniProt P41594)
# T1 construct: expressed in transfected cells; host or cells: HEK293 cells stably expressing rat GLAST (EAAT1), stably transfected with pcDNAzeo3.1 carrying synthetic human mGluR5 DNA; zeocin-selected single clones
# Test: In vitro cell-based FLIPR calcium assay for positive modulation of the activation of mGluR5 by glutamate (PAM EC50)
# Conditions: HEK293/GLAST cells expressing recombinant human mGluR5; FLIPR calcium signal; glutamate added at its EC20; read-out: mGluR5 PAM EC50
# Procedure, shortened: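 HEK293/GLAST cells stably expressing mGluR5 were loaded with calcium-sensitive dye (25 °C, 45–60 min) in HBSS/20 mM HEPES. Test compounds were assayed in buffer containing glutamate at that day's EC20, with FLIPR fluorescence recorded. Controls contained 0.3% DMSO without compound.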
# T1 sequence (P41594 21-1212): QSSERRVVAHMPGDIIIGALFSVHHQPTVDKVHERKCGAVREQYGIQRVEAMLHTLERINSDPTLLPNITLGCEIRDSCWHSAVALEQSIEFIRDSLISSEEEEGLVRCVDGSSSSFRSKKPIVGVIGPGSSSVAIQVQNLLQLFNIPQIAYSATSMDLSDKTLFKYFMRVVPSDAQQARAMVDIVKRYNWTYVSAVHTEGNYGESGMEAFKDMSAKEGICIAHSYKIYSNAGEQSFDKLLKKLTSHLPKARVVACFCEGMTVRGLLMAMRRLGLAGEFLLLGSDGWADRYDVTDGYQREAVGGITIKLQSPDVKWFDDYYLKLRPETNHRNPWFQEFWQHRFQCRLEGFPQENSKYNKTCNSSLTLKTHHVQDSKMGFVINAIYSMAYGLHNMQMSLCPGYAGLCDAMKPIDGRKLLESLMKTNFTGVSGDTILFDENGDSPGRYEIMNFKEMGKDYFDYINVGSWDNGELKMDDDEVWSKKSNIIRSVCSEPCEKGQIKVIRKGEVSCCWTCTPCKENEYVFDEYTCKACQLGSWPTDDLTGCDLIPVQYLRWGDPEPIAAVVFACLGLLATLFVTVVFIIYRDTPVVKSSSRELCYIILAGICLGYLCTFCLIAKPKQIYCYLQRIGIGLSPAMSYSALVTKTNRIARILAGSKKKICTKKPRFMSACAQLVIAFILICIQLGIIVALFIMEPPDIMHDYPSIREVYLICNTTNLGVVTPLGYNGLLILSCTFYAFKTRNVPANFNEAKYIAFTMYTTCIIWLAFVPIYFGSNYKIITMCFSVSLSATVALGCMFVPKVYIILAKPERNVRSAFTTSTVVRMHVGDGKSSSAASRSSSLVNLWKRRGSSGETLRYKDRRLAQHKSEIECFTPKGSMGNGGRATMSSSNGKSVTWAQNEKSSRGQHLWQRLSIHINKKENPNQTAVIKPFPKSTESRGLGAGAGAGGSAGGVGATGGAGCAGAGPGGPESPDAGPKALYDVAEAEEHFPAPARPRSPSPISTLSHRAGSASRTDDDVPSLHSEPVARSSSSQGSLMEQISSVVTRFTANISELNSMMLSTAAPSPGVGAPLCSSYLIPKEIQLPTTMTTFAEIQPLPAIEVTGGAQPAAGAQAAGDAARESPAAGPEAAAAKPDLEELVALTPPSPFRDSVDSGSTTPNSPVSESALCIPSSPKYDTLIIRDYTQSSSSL
row,SMILES,EC50
1,"CC(C)CC1CCCCc2nc3cc(C#Cc4ccc(F)cc4)ccc3c(=O)n21 (stereo not shown) [Example 6.32, 3-((4-fluorophenyl)ethynyl)-10-isobutyl-7,8,9,10-tetrahydroazepino[2,1-b]quinazolin-12(6H)-one]",100 to 300 nM
2,"O=c1c2ccc(C#Cc3ccc(F)cc3)cc2ncn1Cc1ccco1 [Example 1.14, 7-((4-fluorophenyl)ethynyl)-3-(furan-2-ylmethyl)quinazolin-4(3H)-one]",300 to 1000 nM
3,"CN1CCn2c(nc3cc(C#Cc4cccc(F)c4)ccc3c2=O)C1 [Example 5.4, 9-((3-fluorophenyl)ethynyl)-2-methyl-3,4-dihydro-1H-pyrazino[2,1-b]quinazolin-6(2H)-one]",< 10 nM
4,"O=c1c2ccc(C#Cc3ccccc3)cc2nc2n1CCCCC2 [Example 6.4, 3-(phenylethynyl)-7,8,9,10-tetrahydroazepino[2,1-b]quinazolin-12(6H)-one]",< 10 nM
5,"C=CCC1CCCn2c1nc1cc(C#Cc3cccc(F)c3)ccc1c2=O (stereo not shown) [Example 4.7, 6-allyl-3-((3-fluorophenyl)ethynyl)-8,9-dihydro-6H-pyrido[2,1-b]quinazolin-11(7H)-one]",10 to 30 nM
6,"CC1CN(C)Cc2nc3cc(C#Cc4ccccn4)ccc3c(=O)n21 (stereo not shown) [Example 5.15, 2,4-dimethyl-9-(pyridin-2-ylethynyl)-3,4-dihydro-1H-pyrazino[2,1-b]quinazolin-6(2H)-one]",30 to 100 nM
7,"CC(C)Cn1cnc2cc(C#Cc3cccc(F)c3)ccc2c1=O [Example 1.20, 7-((3-fluorophenyl)ethynyl)-3-isobutylquinazolin-4(3H)-one]",30 to 100 nM
8,"CN(C)Cc1nc2cc(C#Cc3cccc(F)c3)ccc2c(=O)n1C [Example 2.7, 2-((dimethylamino)methyl)-7-((3-fluorophenyl)ethynyl)-3-methylquinazolin-4(3H)-one]",30 to 100 nM
9,"O=c1c2ccc(C#Cc3ccc(F)cc3)cc2nc2n1CCOCC2 [Example 6.1, 8-((4-fluorophenyl)ethynyl)-4,5-dihydro-1H-[1,4]oxazepino[5,4-b]quinazolin-11(2H)-one]",< 10 nM
10,"CC1(C)CCn2c(nc3cc(C#Cc4ccccn4)ccc3c2=O)C1 [Example 4.15, 7,7-dimethyl-3-(pyridin-2-ylethynyl)-8,9-dihydro-6H-pyrido[2,1-b]quinazolin-11(7H)-one]",< 10 nM
11,"COC1(C)CCc2nc3cc(C#Cc4ccccn4)ccc3c(=O)n2CC1 (single isomer, unassigned) [Example 6.50a/6.50b slower moving enantiomer (fraction 2), 8-methoxy-8-methyl-3-(pyridin-2-ylethynyl)-7,8,9,10-tetrahydroazepino[2,1-b]quinazolin-12(6H)-one]",10 to 30 nM
12,"COCCn1cnc2cc(C#Cc3ccc(F)cc3)ccc2c1=O [Example 1.12, 7-((4-fluorophenyl)ethynyl)-3-(2-methoxyethyl)quinazolin-4(3H)-one]",30 to 100 nM
13,"CC1(C)CC(F)c2nc3cc(C#Cc4ccccn4)ccc3c(=O)n2C1 (stereo not shown) [Example 4.47, 6-fluoro-8,8-dimethyl-3-(pyridin-2-ylethynyl)-8,9-dihydro-6H-pyrido[2,1-b]quinazolin-11(7H)-one]",< 10 nM
14,"CC1CCc2nc3cc(C#Cc4ccc(F)cc4)ccc3c(=O)n2CC1 (stereo not shown) [Example 6.6, 3-((4-fluorophenyl)ethynyl)-8-methyl-7,8,9,10-tetrahydroazepino[2,1-b]quinazolin-12(6H)-one]",< 10 nM
15,"O=c1c2ccc(C#Cc3cccc(F)c3)cc2nc2n1CC(O)CC2 (stereo not shown) [Example 4.23, 3-((3-fluorophenyl)ethynyl)-8-hydroxy-8,9-dihydro-6H-pyrido[2,1-b]quinazolin-11(7H)-one]",30 to 100 nM
16,"O=c1c2ccc(C#Cc3ccccn3)cc2nc2n1CCC1(CCCO1)CC2 (stereo not shown) [Example 6.27, 3-(pyridin-2-ylethynyl)-4′,5′,9,10-tetrahydro-3′H,6H-spiro[azepino[2,1-b]quinazoline-8,2′-furan]-12(7H)-one]",30 to 100 nM
17,"CCC(C)N1CCn2c(nc3cc(C#Cc4cccc(F)c4)ccc3c2=O)C1 (stereo not shown) [Example 5.6, 2-(sec-butyl)-9-((3-fluorophenyl)ethynyl)-3,4-dihydro-1H-pyrazino[2,1-b]quinazolin-6(2H)-one]",100 to 300 nM
18,"O=c1c2ccc(C#Cc3cccc(F)c3)cc2nc2n1CC1CCCCN1C2 (stereo not shown) [Example 5.19, 3-((3-fluorophenyl)ethynyl)-8,9,10,11,11a,12-hexahydropyrido[1′,2′:4,5]pyrazino[2,1-b]quinazolin-14(6H)-one]",300 to 1000 nM
19,"O=c1c2ccc(C#Cc3ccccn3)cc2nc2n1CCC(CO)C2 (stereo not shown) [Example 4.37, 7-(hydroxymethyl)-3-(pyridin-2-ylethynyl)-8,9-dihydro-6H-pyrido[2,1-b]quinazolin-11(7H)-one]",30 to 100 nM
20,"CC1CCc2nc3cc(C#Cc4ccccn4)cnc3c(=O)n2CC1 (single isomer, unassigned) [11.9a/11.9b slower moving enantiomer (fraction 2), 8-methyl-3-(pyridin-2-ylethynyl)-7,8,9,10-tetrahydropyrido[3′,2′:4,5]pyrimido[1,2-a]azepin-12(6H)-one]",10 to 30 nM
21,"CC(C)N(C)C(C)c1nc2cc(C#Cc3ccccn3)ccc2c(=O)n1C (stereo not shown) [Example 2.22, 2-(1-(isopropyl(methyl)amino)ethyl)-3-methyl-7-(pyridin-2-ylethynyl)quinazolin-4(3H)-one]",300 to 1000 nM
22,"CN1CCc2nc3cc(C#Cc4ccc(F)cc4)ccn3c(=O)c2CC1 [Example 16.7, 8-((4-fluorophenyl)ethynyl)-3-methyl-2,3,4,5-tetrahydropyrido[1′,2′:1,2]pyrimido[4,5-d]azepin-12(1H)-one]",300 to 1000 nM

# Further lines, results first:
row,EC50,SMILES
1,100 to 300 nM,"CC1CCc2nc3cc(/C=C/c4ccccn4)ccc3c(=O)n2CC1 (stereo not shown) [Example 20.3, (E)-8-methyl-3-(2-(pyridin-2-yl)vinyl)-7,8,9,10-tetrahydroazepino[2,1-b]quinazolin-12(6H)-one]"
2,300 to 1000 nM,N#Cc1ccc(C#Cc2ccc3c(=O)n4c(nc3c2)CCC2(CC4)OCCO2)cc1 [Example 7.39]
3,30 to 100 nM,"O=C1CCc2nc3cc(C#Cc4cccc(F)c4)ccc3c(=O)n2CCN1 [Example 10.5, 9-((3-fluorophenyl)ethynyl)-2,3,5,6-tetrahydro-1H-[1,4]diazocino[8,1-b]quinazoline-4,12-dione]"
4,100 to 300 nM,Cc1cccc(C#Cc2ccc3c(=O)n4c(nc3c2)CCC2(CC4)OCCO2)c1 [Example 7.31]
5,100 to 300 nM,O=c1c2ccc(C#Cc3ccccn3)cc2nc2n1C1CCN(CC1)C2 [Example 8.26]
6,300 to 1000 nM,"O=C(Nc1ccc2c(=O)n3c(nc2c1)CCCCCC3)c1ccc(F)cc1 [Example 24.1, 4-fluoro-N-(13-oxo-7,8,9,10,11,13-hexahydro-6H-azocino[2,1-b]quinazolin-3-yl)benzamide]"
7,300 to 1000 nM,"O=c1[nH]ccc2cc(C#Cc3cccc(F)c3)ccc12 [Example 18.1, 6-((3-fluorophenyl)ethynyl)isoquinolin-1(2H)-one]"
8,100 to 300 nM,O=c1c2ccc(C#Cc3ccccc3C(F)(F)F)cc2nc2n1CCC1(CC2)OCCO1 [Example 7.40]
9,100 to 300 nM,"CC(=O)N1CCc2nc3cc(C#Cc4cccc(F)c4)ccc3c(=O)n2CC1 [Example 8.17, 3-acetyl-8-((3-fluorophenyl)ethynyl)-2,3,4,5-tetrahydro-[1,4]diazepino[7,1-b]quinazolin-11(1H)-one]"
10,100 to 300 nM,"O=c1c2ccc(C#Cc3ccccn3)cc2nc2n1CC1CCCCN1CC2 (stereo not shown) [Example 9.2, 3-(pyridin-2-ylethynyl)-9,10,11,12,12a,13-hexahydro-6H-pyrido[2′,1′:3,4][1,4]diazepino[7,1-b]quinazolin-15(7H)-one]"
11,100 to 300 nM,"Cc1cnc(NC(=O)c2ccc3c(=O)n4c(nc3c2)CCC(C)CC4)s1 (stereo not shown) [Example 23.1, 8-methyl-N-(5-methylthiazol-2-yl)-12-oxo-6,7,8,9,10,12-hexahydroazepino[2,1-b]quinazoline-3-carboxamide]"
12,300 to 1000 nM,"O=c1c2ncc(C#Cc3ccccn3)cc2nc2n1C(CO)CC2 (stereo not shown) [Example 11.3, 8-(hydroxymethyl)-3-(pyridin-2-ylethynyl)-7,8-dihydropyrido[3,2-d]pyrrolo[1,2-a]pyrimidin-10(6H)-one]"
13,10 to 30 nM,CC1(C)CCn2c(nc3cc(/C=C/c4ccccn4)ccc3c2=O)C1 [Example 20.7]
14,100 to 300 nM,"O=c1c2ncc(C#Cc3ccccn3)cc2nc2n1CCCCC2 [Example 11.8, 3-(pyridin-2-ylethynyl)-7,8,9,10-tetrahydropyrido[3′,2′:4,5]pyrimido[1,2-a]azepin-12(6H)-one]"
15,300 to 1000 nM,"O=c1c2c(nc3cc(C#Cc4ccccn4)ccn13)C[C@@H]1CCCN1C2 [Example 15.7, (S)-10-(pyridin-2-ylethynyl)-2,3,13,13a-tetrahydro-1H-pyrido[1′,2′:1,2]pyrimido[5,4-f]indolizin-6(5H)-one]"
16,300 to 1000 nM,O=c1c2ccc(C#Cc3cccnc3)cc2nc2n1CCC1(CC2)OCCO1 [Example 7.11]
17,300 to 1000 nM,"CC1Cc2nc3cc(CCc4cccc(F)c4)ccc3c(=O)n2C1 (stereo not shown) [Example 21.7, 6-(3-fluorophenethyl)-2-methyl-2,3-dihydropyrrolo[2,1-b]quinazolin-9(1H)-one]"
18,300 to 1000 nM,Cc1ccc(C#Cc2ccc3c(=O)n4c(nc3c2)CCC2(CC4)OCCO2)cc1 [Example 7.32]
19,< 10 nM,"O=c1c2c(nc3cc(C#Cc4ccccc4)ccn13)CCCCC2 [Example 16.2, 3-(phenylethynyl)-7,8,9,10-tetrahydrocyclohepta[d]pyrido[1,2-a]pyrimidin-11(6H)-one]"
20,100 to 300 nM,O=c1c2ccc(C#CC3=CCCC3)cc2nc2n1CCC1(CC2)OCCO1 [Example 7.51]
21,30 to 100 nM,"CN1CCCc2nc3cc(C#Cc4ccc(F)cc4)ccc3c(=O)n2CC1 [Example 10.2, 9-((4-fluorophenyl)ethynyl)-3-methyl-3,4,5,6-tetrahydro-1H-[1,4]diazocino[8,1-b]quinazolin-12(2H)-one]"
